The source of these data is patent US20100221736A1, “METHOD FOR PREDICTING SUSCEPTIBILITY TO A MENTAL DISORDER” (priority 2007, published 2010).

What all share (type): cell-based, human
The subject of one test is skin fibroblasts. Nature of the test: GSH content in cultured skin fibroblasts after t-BHQ treatment. The settings on record: for GSH content: t-BHQ treated (50 μM, 18 h). How it is done:
(§1) Human fibroblast cultures were established from skin biopsies as described in Tosic et al.[8] Cells were grown with DMEM medium (0.5 l medium completed with 10 ml Ultroser-G serum, 5 ml Penicillin/Streptomycin, 5 ml sodium pyruvate (100 mM)) at 37° C. in a humidified atmosphere containing 5% CO2/95% air. Human fibroblasts near confluence after five passages were treated for 18 h with 50 μM t-BHQ in 0.05% DMSO (t-BHQ condition) or 0.05% DMSO alone (baseline condition). Cells were washed once with phosphate-buffer saline (PBS), trypsinized and pelleted. The pellet was washed once, taken up into PBS and frozen. GSH content and GCL activity was determined in protein extracts from fibroblasts cultures, with a fluorescence-based microtiter plate assay according to White and colleagues [White et al, 2003]. GCL activity was determined as the difference between GSH synthesis in unblocked and GSH synthesis in BSO treated wells per min and per mg protein. Protein concentration has been determined by BCA protein assay. In addition, GSH contents under untreated conditions were also routinely measured in all participants that had spent skin fibroblasts (33 controls and 39 patients) by a colorimetric GSH assay kit (Calbiochem, San Diego, USA).

For the next test, the system named is GCLC. Nature of the test: GCLC protein expression by Western Blot in skin fibroblasts after t-BHQ treatment. The note with it: for increase of GCLC protein expression by t-BHQ treatment (factor): t-BHQ vs baseline. How it is done:
(§2) Human fibroblast cultures were established from skin biopsies as described in Tosic et al.[8] Cells were grown with DMEM medium (0.5 l medium completed with 10 ml Ultroser-G serum, 5 ml Penicillin/Streptomycin, 5 ml sodium pyruvate (100 mM)) at 37° C. in a humidified atmosphere containing 5% CO2/95% air. Human fibroblasts near confluence after five passages were treated for 18 h with 50 μM t-BHQ in 0.05% DMSO (t-BHQ condition) or 0.05% DMSO alone (baseline condition). Cell lysis was performed on ice. Cells were washed with PBS and scraped with lysis buffer (2.37 ml scraping buffer (Tris-HCl 50 mM, pH 7.2; NaCl 150 mM; NaF 10 mM; EDTA 2 mM; EGTA 2 mM; Triton X100 1%); 100 μl Complete (1 tablet/2 ml H2O); 25 μl PMSF 100 mM; 2.5 μl DTT 1 mM). Lysates were homogenized 10 times with a 25-gauge needle, and cellular debris were cleared by centrifugation (20,000 g, 14 min, 4° C.). Protein concentration was determined by BCA protein assay. Equal amounts of protein (50 μg) were dissolved in 5× Laemmli sample buffer, separated by 12% SDS-PAGE, and electro-transferred to a PVDF membrane. Membranes were blocked (BSA 1%/milk powder 3%) overnight at 4° C. Following incubation with primary and secondary antibodies, protein was visualized by using the ECL detection system and protein abundance was quantified by densitometry analysis (Multi Genius, Bio Imaging System, Syngene). A fibroblast protein pool from 5 different individuals was used as an external control in all experiments. The results were normalized to a -Tubulin, and reported relative to the specific protein levels measured in the protein pool.

A further test relates to GCLM. The test can be described thus: GCLM protein expression by Western Blot in skin fibroblasts after t-BHQ treatment. The note with it: for increase of GCLM protein expression induced by t-BHQ treatment: t-BHQ vs baseline; for GCLM protein expression: t-BHQ treated (50 μM, 18 h). The procedure:
as §2

In test [1] the test system is glutamate cysteine ligase (GCL). The test can be described thus: GCL activity in cultured skin fibroblasts after t-BHQ treatment. The settings on record: for increase of GCL activity after t-BHQ treatment (factor): t-BHQ vs baseline. How it is done:
as §1

Where [2] appears, read: fibroblasts of control subjects.
Setting [3] is: fibroblasts of schizophrenia patients.
[4] abbreviates: t-BHQ treatment, subjects with GCLC GAG TNR genotypes 7/7 & 7/9.
[5] abbreviates: t-BHQ treatment, subjects with genotypes 7/8, 8/8, 8/9 & 9/9.

As to `CC(C)(C)c1cc(O)ccc1O` [t-BHQ, tert-butylhydroquinone], the figures for the GSH content in the test on skin fibroblasts (setting [2]) and with skin fibroblasts (setting [3]) were 144.9 ± 21.5 nmol GSH/mg protein and 136.3 ± 19.1 nmol GSH/mg protein, respectively. For the same molecule, in the test on skin fibroblasts (very similar in patients and controls, t-BHQ vs baseline), the “increase of GSH content after t-BHQ treatment (factor)” value was 2.53. Moreover, the “increase of GCLC protein expression by t-BHQ treatment (factor)” value in the test on GCLC (controls) is given as 1.44; in the test with GCLC (patients), 1.32. Moreover, the GCLC protein expression in the test on GCLC (t-BHQ treated (50 μM, 18 h), fibroblasts of control subjects) is given as 64.1 ± 17.5 α-Tubulin corrected arbitrary units; in the test with GCLC (t-BHQ treated (50 μM, 18 h), fibroblasts of schizophrenia patients), 45.4 ± 15.8 α-Tubulin corrected arbitrary units; in the test on GCLC (setting [4]) it was 58.9±19.0; in the test on GCLC (setting [5]) it was 45.6±13.3. Also, the “increase of GCLM protein expression induced by t-BHQ treatment” value came to 73% in the test with GCLM (control subjects) and 74% in the test on GCLM (patients). In addition, the GCLM protein expression in the test with GCLM (setting [2]) is 108.0 ± 24.0 α-Tubulin corrected arbitrary units; in the test on GCLM (setting [3]) it was 107.6 ± 24.1 α-Tubulin corrected arbitrary units. The “increase of GCL activity after t-BHQ treatment (factor)” value was 3.45 in test [1] (controls) and 2.95 in test [1] (patients). Also, the GCL activity in test [1] (t-BHQ treated (50 μM, 18 h), fibroblasts of control subjects, average and standard deviation) is given as 0.847 ± 0.26 nmol GSH/min/mg protein; in test [1] (t-BHQ treated (50 μM, 18 h), fibroblasts of schizophrenia patients, average and standard deviation), 0.627 ± 0.16 nmol GSH/min/mg protein; in test [1] (setting [4]), 0.784±0.246; in test [1] (setting [5]), 0.584±0.141.
